In brackets after ≈: the same amount, converted by molar mass. Several values for one entry are separate records, joined by “and”; a condition that tells them apart may be missing. Equal entries are not always repeated. Entries after “also recorded” stand apart in the source; their conditions may differ. Where two headings read alike, the source gives them in different places.
Assays:
[1] = target: AChE from Electrophorus electricus (EeAChE) (Electrophorus electricus, UniProt O42275); test: physchem; conditions: for solubility: pH 8
Description: The inhibitory activity on AChE from Electrophorus electricus (type VI-S, Sigma, Milan, Italy), was evaluated spectrophotometrically by the method of Ellman et al.. AChE stock solution was prepared by dissolving EeAChE lyophilized powder (Sigma) in 0.1 M phosphate buffer (pH = 8.0) containing 0.1% Triton X-100. Stock solutions of the tested compounds (1 mM) were prepared in MeOH/H2O 50/50 (v/v) and diluted in MeOH/H2O 50/50 (v/v). […] Assay solutions with and without inhibitor were preincubated at 37 °C for 20 min followed by the addition of substrate. Blank solutions containing all components except EeAChE were prepared in parallel to account for the non-enzymatic hydrolysis of the substrate. Initial rate assays were performed at 37 °C with a Jasco V-530 double beam spectrophotometer. […] The velocity in the presence and absence of inhibitor were compared and % inhibition was calculated. The results were plotted by placing the percentage of inhibition in function of the decimal log of the final inhibitor concentration. Linear regression and IC50 values were calculated using Microcal Origin 3.5 software (Microcal Software, […]).

[2] = target: T1, BuChE from horse serum (eqBuChE) (Equus caballus, UniProt P81908); test: biochemical; conditions: mean ± SEM
T1 construct: BuChE from horse serum (lyophilized powder, Sigma-Aldrich); purchased Sigma-Aldrich; host or cells: horse serum
Description: The % inhibitory activity on BuChE from horse serum (lyophilized powder, Sigma-Aldrich), was evaluated spectrophotometrically by the method of Ellman et al.. BuChE stock solutions were first dissolved in 0.1 M phosphate buffer (pH 8.0) and then aliquoted in small vials. Compounds were dissolved in DMSO at 10 mM. The reaction was carried out in a final volume of 3 mL of a 0.1 M phosphate-buffered solution at pH 8.0, containing 5,5′-dithiobis-2-nitrobenzoic acid (DTNB, 2625 µL, 0.35 mM, final concentration), eqBuChE (60 µL, 0.05 U/mL final concentration), tested compound (3 µL, 10 µM, final concentration) and 1% w/v Bovine Serum Albumin phosphate-buffered (pH 8.0) solution (BSA, 40 µL). The inhibition with respect to control without compound was determined by pre-incubating this mixture at rt with each compound for 10 min. After this period, butyrylthiocholine iodide (150 µL, 0.5 mM final concentration) was added and incubated for 15 min at rt.

[3] = Oxygen radical absorbance capacity by fluorescence (ORAC-FL); conditions: Trolox equivalents, mean ± SD
Description: The antioxidant power of the imidazopyranotacrines 1–13 was determined by the oxygen radical absorbance capacity by fluorescence (ORAC-FL) method using fluorescein as fluorescent probe and Trolox (6-hydroxy-2,5,7,8-tetramethylchroman-2-carboxylic acid) as a reference compound. Results are expressed as Trolox equivalents (μmol Trolox per μmol test compound).
The radical scavenging activity of imidazopyranotacrines 1–13 was determined by the ORAC-FL method using a Varioskan Flash plate reader with built-in injectors (Thermo Scientific). Trolox, 2,2′-azobis(amidinopropane) dihydrochloride (AAPH) and fluorescein (FL) were purchased from Sigma-Aldrich. The reaction was performed at 37 °C in 75 mM phosphate buffer (pH = 7.4), and the final volume reaction mixture was 200 µL. The final concentrations were 1–8 µM for Trolox and 0.1–1 µM for the tested compounds. Briefly, in a black 96-well microplate (Nunc), antioxidant (20 µL) and fluorescein (120 µL) were incubated for 15 min at 37 °C. Then, 2,2′-azobis(amidinopropane) dihydrochloride (60 µL) was added using the built-in injector. […] All assays were made in triplicate and at least three different assays were performed for each sample.
The net AUC corresponding to a sample was calculated as follows: Net AUC = AUCantioxidant − AUCblank(2)
Regression equations were calculated by plotting the net AUC against the antioxidant concentration. The ORAC value was obtained by dividing the slope of the latter curve by the slope of the Trolox curve obtained in the same assay. ORAC values was expressed as µmol of Trolox equivalent/µmol of imidazopyranotacrines. Data are expressed as mean ± SD.

HepG2 cells = assay type: cell-based; conditions: for Cell viability (MTT reduction, % control): 24 h, mean ± S.E.M.; for hepatotoxicity on HepG2 cells (in words): cell viability assay, 1–1000 µM
Description: The human hepatoma HepG2 line cells were purchased from American Type Culture Collection. The cells were cultured in Eagle’s Minimum Essential Medium (Ozyme, Montigny-le-Bretonneux, France) supplemented with 10% fetal bovine serum, 1X non-essential amino acids, 100 units/mL penicillin and […] streptomycin (Dutscher, Brumath, France). […] Prior to the experiment, cells were seeded in 96-well culture plates at a density of 0.1 × 10^6 cells per well. After 24 h of incubation, the culture medium was refreshed and 100 µL of the test compounds or DMSO (0.1%) were added. Compounds were tested at 7 concentrations (1–1000 µM) in triplicate.
Cell viability, measured as the mitochondrial activity of living cells, was determined by quantitative colorimetric assay with 3-[4,5 dimethylthiazol-2-yl]-2,5-diphenyl-tetrazolium bromide (MTT). Briefly, after 24 h of treatment, cells were incubated with 50 µL MTT (0.5 mg/mL, Sigma Aldrich) at 37 °C for 2 h. Plates were centrifuged, MTT was removed and 100 µL DMSO was distributed per well. The absorbance was read at 570 nm by microplate spectrophotometry. Cell viability was expressed as percentage over controls (DMSO, 0.1%).

[4] = read-out: EeAChE % inhibition at the highest concentration

AChE from Electrophorus electricus (EeAChE), sequence (O42275 24-633): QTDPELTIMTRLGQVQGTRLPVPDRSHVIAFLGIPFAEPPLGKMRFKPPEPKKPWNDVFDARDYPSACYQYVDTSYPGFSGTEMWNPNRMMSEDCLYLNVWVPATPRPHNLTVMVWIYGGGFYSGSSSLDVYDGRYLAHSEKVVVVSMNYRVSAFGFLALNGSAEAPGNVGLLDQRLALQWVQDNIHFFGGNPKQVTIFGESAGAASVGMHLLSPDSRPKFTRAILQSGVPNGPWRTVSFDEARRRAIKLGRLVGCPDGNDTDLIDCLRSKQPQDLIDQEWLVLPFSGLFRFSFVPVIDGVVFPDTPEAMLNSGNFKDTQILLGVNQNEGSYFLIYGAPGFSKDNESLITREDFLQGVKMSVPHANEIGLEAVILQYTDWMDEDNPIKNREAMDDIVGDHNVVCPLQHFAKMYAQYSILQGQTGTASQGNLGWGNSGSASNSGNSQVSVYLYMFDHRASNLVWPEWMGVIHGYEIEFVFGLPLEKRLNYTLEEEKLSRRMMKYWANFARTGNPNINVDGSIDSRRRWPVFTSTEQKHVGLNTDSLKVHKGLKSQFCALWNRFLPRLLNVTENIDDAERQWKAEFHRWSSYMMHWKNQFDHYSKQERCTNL
T1 sequence (P81908 whole entry): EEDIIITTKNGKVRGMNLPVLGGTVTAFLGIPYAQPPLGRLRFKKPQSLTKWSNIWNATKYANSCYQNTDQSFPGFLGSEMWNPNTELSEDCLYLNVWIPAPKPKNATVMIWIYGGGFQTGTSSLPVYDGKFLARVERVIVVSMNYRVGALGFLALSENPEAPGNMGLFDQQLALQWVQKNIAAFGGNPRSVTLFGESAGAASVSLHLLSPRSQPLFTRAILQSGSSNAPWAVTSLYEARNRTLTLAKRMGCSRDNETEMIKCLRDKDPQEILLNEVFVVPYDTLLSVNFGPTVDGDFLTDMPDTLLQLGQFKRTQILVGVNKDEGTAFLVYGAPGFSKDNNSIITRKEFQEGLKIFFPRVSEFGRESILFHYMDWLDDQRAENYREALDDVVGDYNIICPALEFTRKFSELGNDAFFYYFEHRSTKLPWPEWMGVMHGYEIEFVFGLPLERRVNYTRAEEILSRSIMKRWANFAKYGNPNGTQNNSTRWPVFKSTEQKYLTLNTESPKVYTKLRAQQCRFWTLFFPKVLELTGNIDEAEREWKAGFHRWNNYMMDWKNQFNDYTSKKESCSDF

`Cn1ccnc1C1c2c(nc3c(c2N)CCCCC3)Oc2ccc3ccccc3c21` (centres unmarked) [Compound 9, 15-(1-Methyl-1H-imidazol-2-yl)-9,10,11,12,13,15-hexahydrobenzo[5,6]chromeno[2,3-b]cyclohepta[e]pyridin-14-amine] showed a solubility [1] of 15 µM (≈ 5.95 µg/mL), an inhibition at 15 µM [1, 4] of less than 15% and an inhibition at 10 µM [2] of 15.1 ± 4.7%. The ORAC [3] was 1.35 ± 0.13 µmol Trolox/µmol compound.
Compound `CCOC(=O)C1=C(C)Oc2nc3c(c(N)c2C1c1nccn1C)CCC3` (centres unmarked) [Compound 1, Ethyl 5-amino-2-methyl-4-(1-methyl-1H-imidazol-2-yl)-4,6,7,8-tetrahydrocyclopenta[b]pyrano[3,2-e]pyridine-3-carboxylate] has an IC50 [1] of 12.9 ± 0.3 µM, an inhibition at 10 µM [2] of 25.6 ± 0.7% and an ORAC [3] of 0.34 ± 0.03 µmol Trolox/µmol compound.
With `Cn1ccnc1C1C2=C(CC(C)(C)CC2=O)Oc2nc3c(c(N)c21)CCCC3` (centres unmarked) [Compound 6, 11-Amino-3,3-dimethyl-12-(1-methyl-1H-imidazol-2-yl)-2,3,4,7,8,9,10,12-octahydro-1H-chromeno[2,3-b]quinolin-1-one] the IC50 [1] was 37.8 ± 1.2 µM, the inhibition at 10 µM [2] was 33.5 ± 1.7% and the ORAC [3] was 2.34 µmol Trolox/µmol compound and 2.34 ± 0.31 µmol Trolox/µmol compound.
For “7-(1-Methyl-1H-imidazol-2-yl)-9,10,11,12-tetrahydro-7H-benzo[7,8]chromeno[2,3-b]quinolin-8-amine [Compound 10]”, the IC50 ([1]; read-out: EeAChE IC50 Values, mean ± SEM) was 10.7 ± 0.2 µM, the “eqBuChE % Inhibition at 10 μM” value [2] was 25.0 ± 0.2% and the ORAC [3] was 2.75 ± 0.09 µmol Trolox/µmol compound. For the same compound, the “Cell viability (MTT reduction, % control)” value (HepG2 cells; HepG2, 1 µM) was 101.8 ± 4.2 % control, the “Cell viability (MTT reduction, % control)” value (HepG2 cells; HepG2, 3 µM) was 100.7 ± 2.6 % control and the “Cell viability (MTT reduction, % control)” value (HepG2 cells; HepG2, 10 µM) was 100.5 ± 1.9 % control. For the same compound, the “Cell viability (MTT reduction, % control)” value (HepG2 cells; HepG2, 30 µM) was 71.4 ± 7.4 % control, the “Cell viability (MTT reduction, % control)” value (HepG2 cells; HepG2, 100 µM) was 63.5 ± 6.2 % control and the “Cell viability (MTT reduction, % control)” value (HepG2 cells; HepG2, 300 µM) was 64.8 ± 5.7 % control. The “Cell viability (MTT reduction, % control)” value (HepG2 cells; HepG2, 1000 µM) was 66.8 ± 4.1 % control and the “hepatotoxicity on HepG2 cells (in words)” value (HepG2 cells) was “more toxic than tacrine”.
In the case of `Cn1ccnc1C1c2c(nc3c(c2N)CCC3)Oc2ccc3ccccc3c21` (centres unmarked) [Compound 7, 13-(1-Methyl-1H-imidazol-2-yl)-9,10,11,13-tetrahydrobenzo[5,6]chromeno[2,3-b]cyclopenta[e]pyridin-12-amine], the IC50 [1] is reported as 8.41 ± 0.14 µM, the inhibition at 10 µM [2] is reported as 50.5 ± 7.3% and the ORAC [3] is reported as 1.47 ± 0.13 µmol Trolox/µmol compound.
In the case of `CCOC(=O)C1=C(C)Oc2nc3c(c(N)c2C1c1nccn1C)CCCCC3` (centres unmarked) [Compound 3, Ethyl 5-amino-2-methyl-4-(1-methyl-1H-imidazol-2-yl)-4,6,7,8,9,10-hexahydrocyclohepta[b]pyrano[3,2-e]pyridine-3-carboxylate], the IC50 [1] is reported as 432 ± 84 µM, the inhibition at 10 µM [2] is reported as 32.2 ± 0.9% and the ORAC [3] is reported as 1.99 ± 0.23 µmol Trolox/µmol compound.
`CCOC(=O)C1=C(C)Oc2nc3c(c(N)c2C1c1nccn1C)CCCC3` (centres unmarked) [Compound 2, Ethyl 5-amino-2-methyl-4-(1-methyl-1H-imidazol-2-yl)-6,7,8,9-tetrahydro-4H-pyrano[2,3-b]quinoline-3-carboxylate] showed an IC50 [1] of 11.5 ± 0.4 µM, an inhibition at 10 µM [2] of 34 ± 0.5% and an ORAC [3] of 1.79 ± 0.17 µmol Trolox/µmol compound. For the same compound, the “Cell viability (MTT reduction, % control)” value (HepG2 cells; HepG2, 1 µM) was 102.7 ± 3.7 % control, the “Cell viability (MTT reduction, % control)” value (HepG2 cells; HepG2, 3 µM) was 103.2 ± 4.4 % control and the “Cell viability (MTT reduction, % control)” value (HepG2 cells; HepG2, 10 µM) was 101.3 ± 3.9 % control. For the same compound, the “Cell viability (MTT reduction, % control)” value (HepG2 cells; HepG2, 30 µM) was 99.2 ± 2.6 % control, the “Cell viability (MTT reduction, % control)” value (HepG2 cells; HepG2, 100 µM) was 93.0 ± 4.7 % control and the “Cell viability (MTT reduction, % control)” value (HepG2 cells; HepG2, 300 µM) was 87.5 ± 3.2 % control. The “Cell viability (MTT reduction, % control)” value (HepG2 cells; HepG2, 1000 µM) was 58.8 ± 2.1 % control and the “hepatotoxicity on HepG2 cells (in words)” value (HepG2 cells) was “safe even at 300 µM”.
With `Cn1ccnc1C1c2ccc3cccnc3c2Oc2nc3c(c(N)c21)CCCCC3` (centres unmarked) [Compound 13, 7-(1-Methyl-1H-imidazol-2-yl)-7,9,10,11,12,13-hexahydrocyclohepta[5′,6′]pyrido[3′,2′:5,6]pyrano[3,2-h]quinolin-8-amine] the IC50 [1] was 30 ± 2 µM, the inhibition at 10 µM [2] was 75.7 ± 2.3% and the ORAC [3] was 2.25 µmol Trolox/µmol compound and 2.25 ± 0.29 µmol Trolox/µmol compound.
`Cn1ccnc1C1C2=C(CC(C)(C)CC2=O)Oc2nc3c(c(N)c21)CCC3` (centres unmarked) [Compound 5, 11-Amino-7,7-dimethyl-10-(1-methyl-1H-imidazol-2-yl)-2,3,6,7,8,10-hexahydrochromeno[2,3-b]cyclopenta[e]pyridin-9(1H)-one] gave an IC50 [1] of 158 ± 33 µM, an inhibition at 10 µM [2] of 12.9 ± 0.5% and an ORAC [3] of 1.70 ± 0.33 µmol Trolox/µmol compound.
Work on `Cn1ccnc1C1c2ccc3ccccc3c2Oc2nc3c(c(N)c21)CCCCC3` (centres unmarked) [Compound 11, 7-(1-Methyl-1H-imidazol-2-yl)-7,9,10,11,12,13-hexahydrobenzo[7,8]chromeno[2,3-b]cyclohepta[e]pyridin-8-amine] yielded a solubility [1] of 25 µM (≈ 9.91 µg/mL), an inhibition at 25 µM [1, 4] of less than 15% and an inhibition at 10 µM [2] of 20.3 ± 3.7%. The ORAC [3] was 2.33 µmol Trolox/µmol compound and 2.33 ± 0.13 µmol Trolox/µmol compound.
With `Cn1ccnc1C1c2ccc3cccnc3c2Oc2nc3c(c(N)c21)CCC3` (centres unmarked) [Compound 12, 7-(1-Methyl-1H-imidazol-2-yl)-7,9,10,11-tetrahydrocyclopenta[5′,6′]pyrido[3′,2′:5,6]pyrano[3,2-h]quinolin-8-amine] the IC50 [1] was 15.3 ± 0.6 µM, the inhibition at 10 µM [2] was 27.5 ± 1.1% and the ORAC [3] was 1.88 ± 0.07 µmol Trolox/µmol compound.
With `CC(=O)C1=C(C)Oc2nc3c(c(N)c2C1c1nccn1C)CCCC3` (centres unmarked) [Compound 4, 1-(5-Amino-2-methyl-4-(1-methyl-1H-imidazol-2-yl)-6,7,8,9-tetrahydro-4H-pyrano[2,3-b]quinolin-3-yl)ethan-1-one] the IC50 [1] was 38.7 ± 1.7 µM, the inhibition at 10 µM [2] was 24.9 ± 0.9% and the ORAC [3] was 2.31 µmol Trolox/µmol compound and 2.31 ± 0.29 µmol Trolox/µmol compound. For the same compound, the “Cell viability (MTT reduction, % control)” value (HepG2 cells; HepG2, 1 µM) was 107.7 ± 5.1 % control, the “Cell viability (MTT reduction, % control)” value (HepG2 cells; HepG2, 3 µM) was 105.3 ± 2.9 % control and the “Cell viability (MTT reduction, % control)” value (HepG2 cells; HepG2, 10 µM) was 102.1 ± 2.9 % control. The “Cell viability (MTT reduction, % control)” value (HepG2 cells; HepG2, 30 µM) was 98.0 ± 3.1 % control, the “Cell viability (MTT reduction, % control)” value (HepG2 cells; HepG2, 100 µM) was 104.6 ± 4.5 % control and the “Cell viability (MTT reduction, % control)” value (HepG2 cells; HepG2, 300 µM) was 97.1 ± 3.0 % control. The “Cell viability (MTT reduction, % control)” value (HepG2 cells; HepG2, 1000 µM) was 96.8 ± 1.5 % control and the “hepatotoxicity on HepG2 cells (in words)” value (HepG2 cells) was “non-hepatotoxic; also recorded: safe even at 300 µM; also recorded: non-toxic even at the highest tested concentration; also recorded: lack of hepatotoxicity even at very high concentration”.

From article PMC6273229, “Imidazopyranotacrines as Non-Hepatotoxic, Selective Acetylcholinesterase Inhibitors, and Antioxidant Agents for Alzheimer′s Disease Therapy” (Molecules, 2016)
